In experiment [1] the target is T1, human B1R receptor (hB1R) (Homo sapiens, UniProt P46663).
T1 construct: host or cells: CHO K1 cells
T1 sequence (P46663 1-353): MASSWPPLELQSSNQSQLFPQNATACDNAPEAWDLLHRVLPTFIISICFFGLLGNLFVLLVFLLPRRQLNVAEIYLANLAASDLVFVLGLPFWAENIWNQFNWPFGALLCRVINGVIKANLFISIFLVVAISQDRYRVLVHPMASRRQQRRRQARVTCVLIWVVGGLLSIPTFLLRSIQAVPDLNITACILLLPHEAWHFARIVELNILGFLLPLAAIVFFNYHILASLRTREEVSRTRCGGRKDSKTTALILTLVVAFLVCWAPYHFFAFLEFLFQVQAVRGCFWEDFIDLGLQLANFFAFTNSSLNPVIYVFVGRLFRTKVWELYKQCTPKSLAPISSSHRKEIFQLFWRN
Kind of experiment: FLIPR Ca2+ assay on hB1R-transfected CHO K1 cells, antagonistic action. It is filed as cell-based. As to conditions: CHO-K1, 10 μM test substance; agonist Lys-Des-Arg9-bradykinin 0.5 nM; % of maximum achievable inhibition; read-out: hB1R [10 μM] % inhibition.

In experiment [2] the target is T2, B1R receptor of the rat (rB1R) (Rattus norvegicus, UniProt P97583).
T2 construct: host or cells: CHO K1 cells
T2 sequence (P97583 1-337): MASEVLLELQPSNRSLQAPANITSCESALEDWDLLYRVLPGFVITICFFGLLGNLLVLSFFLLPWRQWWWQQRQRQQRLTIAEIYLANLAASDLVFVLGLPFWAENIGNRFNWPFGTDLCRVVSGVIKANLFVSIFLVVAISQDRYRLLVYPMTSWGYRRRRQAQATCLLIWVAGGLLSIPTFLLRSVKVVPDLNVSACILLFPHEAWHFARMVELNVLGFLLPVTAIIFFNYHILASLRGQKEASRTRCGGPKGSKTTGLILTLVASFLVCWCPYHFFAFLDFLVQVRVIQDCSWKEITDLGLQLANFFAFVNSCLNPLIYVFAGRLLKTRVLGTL
Briefly: FLIPR Ca2+ assay on rB1R-transfected CHO K1 cells, antagonistic action. It is filed as cell-based. To be noted: CHO-K1, 10 μM test substance; agonist Des-Arg9-bradykinin 100 nM; % of maximum achievable inhibition; read-out: rB1R [10 μM] % inhibition.

For `CN(C)C1(c2ccccc2)CCN(C(=O)COCC2CCc3ccccc3N2S(=O)(=O)c2ccc(Cl)c(Cl)c2)CC1` (stereo not drawn) [Compound 109, 2-((1-(3,4-dichlorophenylsulfonyl)-1,2,3,4-tetrahydroquinolin-2-yl)methoxy)-1-(4-(dimethylamino)-4-phenylpiperidin-1-yl)ethanone], the inhibition – broadly, the change of the read-out against control, counted positive when it falls – at 10 µM in experiment [1] was 80%; in experiment [2] it was 78%.

On to `Cc1cc(S(=O)(=O)N2CCCCC2CCC(=O)N2CCC(c3ccccc3)(N3CCN(C)CC3)CC2)c(C)cc1Cl` (stereo not drawn) [Compound 110, 3-(1-(4-chloro-2,5-dimethylphenylsulfonyl)piperidin-2-yl)-1-(4-(4-methylpiperazin-1-yl)-4-phenylpiperidin-1-yl)propan-1-one], for which the results for the inhibition at 10 µM in experiment [1] and in experiment [2] were 104% and 78%, respectively.

Consider `CN(CCC1CCC(c2ccccc2)(N(C)C)CC1)C(=O)COCC1CCc2ccccc2N1S(=O)(=O)c1ccc(Cl)c(Cl)c1` (stereo not drawn) [Compound 111, 2-((1-(3,4-dichlorophenylsulfonyl)-1,2,3,4-tetrahydroquinolin-2-yl)methoxy)-N-(2-(4-(dimethylamino)-4-phenylcyclohexyl)ethyl)-N-methylacetamide], for which the inhibition at 10 µM was 80% in experiment [1] and 78% in experiment [2].

For `CN(CC1CCC(Cc2ccccc2)(N2CCCC2)CC1)C(=O)CC(NS(=O)(=O)c1ccc2ccccc2c1)c1ccccc1` (stereo not drawn) [Compound 112, N-((4-benzyl-4-(pyrrolidin-1-yl)cyclohexyl)methyl)-N-methyl-3-(naphthalene-2-sulfonamido)-3-phenylpropanamide], the inhibition at 10 µM in experiment [1] is 97%; in experiment [2], 77%.

Turning to `O=C(CC1CCCCN1S(=O)(=O)c1cccc(C(F)(F)F)c1)N1CCC(c2ccccc2)(N2CCN(c3ccncc3)CC2)CC1` (stereo not drawn) [Compound 113, 1-(4-phenyl-4-(4-(pyridin-4-yl)piperazin-1-yl)piperidin-1-yl)-2-(1-(3-(trifluoromethyl)phenylsulfonyl)piperidin-2-yl)ethanone], the values for the inhibition at 10 µM in experiment [1] and in experiment [2] were 79% and 74%, respectively.

Take `CN(CCC1CCC(CCc2ccccc2)(N2CCCC2)CC1)C(=O)CC(NS(=O)(=O)c1ccc2ccccc2c1)c1ccccc1` (stereo not drawn) [Compound 114, N-methyl-3-(naphthalene-2-sulfonamido)-N-(2-(4-phenethyl-4-(pyrrolidin-1-yl)cyclohexyl)ethyl)-3-phenylpropanamide]: the inhibition at 10 µM is 96% in experiment [1] and 73% in experiment [2].

With `CN1CCN(C2(c3ccccc3)CCN(C(=O)COCC3CCc4ccccc4N3S(=O)(=O)c3ccc(Cl)c(Cl)c3)CC2)CC1` (stereo not drawn) [Compound 115, 2-((1-(3,4-dichlorophenylsulfonyl)-1,2,3,4-tetrahydroquinolin-2-yl)methoxy)-1-(4-(4-methylpiperazin-1-yl)-4-phenylpiperidin-1-yl)ethanone], the inhibition at 10 µM was found to be 71% in experiment [1] and 72% in experiment [2].

Turning to `CN1CCN(C2(CCc3ccccc3)CCN(C(=O)COCC3CCc4ccccc4N3S(=O)(=O)c3ccc(Cl)c(Cl)c3)CC2)CC1` (stereo not drawn) [Compound 116, 2-((1-(3,4-dichlorophenylsulfonyl)-1,2,3,4-tetrahydroquinolin-2-yl)methoxy)-1-(4-(4-methylpiperazin-1-yl)-4-phenethylpiperidin-1-yl)ethanone], the inhibition at 10 µM was 57% in experiment [1] and 71% in experiment [2].

Regarding `Cc1cc(S(=O)(=O)N2CCCCC2CCC(=O)N(C)CCC2CCC(Cc3ccccc3)(N3CCCC3)CC2)c(C)cc1Cl` (stereo not drawn) [Compound 117, N-(2-(4-benzyl-4-(pyrrolidin-1-yl)cyclohexyl)ethyl)-3-(1-(4-chloro-2,5-dimethylphenylsulfonyl)piperidin-2-yl)-N-methylpropanamide], the figures for the inhibition at 10 µM in experiment [1] and in experiment [2] were 103% and 70%, respectively.

For `CN1CCN(C2(Cc3ccccc3)CCN(C(=O)CC(NS(=O)(=O)c3ccc4ccccc4c3)c3ccccc3)CC2)CC1` (stereo not drawn) [Compound 118, N-(3-(4-benzyl-4-(4-methylpiperazin-1-yl)piperidin-1-yl)-3-oxo-1-phenylpropyl)naphthalene-2-sulfonamide], the inhibition at 10 µM in experiment [1] was 101%; in experiment [2], 69%.

Take `CN1CCN(C2(CCc3ccccc3)CCN(C(=O)CC3CCCCN3S(=O)(=O)c3cccc(C(F)(F)F)c3)CC2)CC1` (stereo not drawn) [Compound 119, 1-(4-(4-methylpiperazin-1-yl)-4-phenethylpiperidin-1-yl)-2-(1-(3-(trifluoromethyl)phenylsulfonyl)piperidin-2-yl)ethanone]: the values for the inhibition at 10 µM in experiment [1] and in experiment [2] were 90% and 69%, respectively.

With `CN1CCN(C2(c3cccc(F)c3)CCN(C(=O)CC(NS(=O)(=O)c3ccc4ccccc4c3)c3ccccc3)CC2)CC1` (stereo not drawn) [Compound 120, N-(3-(4-(3-fluorophenyl)-4-(4-methylpiperazin-1-yl)piperidin-1-yl)-3-oxo-1-phenylpropyl)naphthalene-2-sulfonamide], the inhibition at 10 µM in experiment [1] is 97%; in experiment [2], 67%.

With `CN(CCC1CCC(Cc2ccccc2)(N2CCCC2)CC1)C(=O)CC1CCCCN1S(=O)(=O)c1cccc(C(F)(F)F)c1` (stereo not drawn) [Compound 121, N-(2-(4-benzyl-4-(pyrrolidin-1-yl)cyclohexyl)ethyl)-N-methyl-2-(1-(3-(trifluoromethyl)phenylsulfonyl)piperidin-2-yl)acetamide], the figures for the inhibition at 10 µM in experiment [1] and in experiment [2] were 102% and 66%, respectively.

Take `Cc1cc(S(=O)(=O)N2CCCCC2CCC(=O)N2CCC(CCc3ccccc3)(N3CCN(C)CC3)CC2)c(C)cc1Cl` (stereo not drawn) [Compound 122, 3-(1-(4-chloro-2,5-dimethylphenylsulfonyl)piperidin-2-yl)-1-(4-(4-methylpiperazin-1-yl)-4-phenethylpiperidin-1-yl)propan-1-one]: the inhibition at 10 µM was determined as 105% in experiment [1] and 66% in experiment [2].

With `Cc1cc(S(=O)(=O)N2CCCCC2CCC(=O)N2CCC(c3ccccc3)(N(C)C)CC2)c(C)cc1Cl` (stereo not drawn) [Compound 123, 3-(1-(4-chloro-2,5-dimethylphenylsulfonyl)piperidin-2-yl)-1-(4-(dimethylamino)-4-phenylpiperidin-1-yl)propan-1-one], the inhibition at 10 µM amounted to 103% in experiment [1] and 60% in experiment [2].

Consider `Cc1cc(S(=O)(=O)N2CCCCC2CCC(=O)N(C)CCCC2CCC(Cc3ccccc3)(N3CCCC3)CC2)c(C)cc1Cl` (stereo not drawn) [Compound 124, N-(3-(4-benzyl-4-(pyrrolidin-1-yl)cyclohexyl)propyl)-3-(1-(4-chloro-2,5-dimethylphenylsulfonyl)piperidin-2-yl)-N-methylpropanamide], for which the inhibition at 10 µM was determined as 98% in experiment [1] and 58% in experiment [2].

For `CN(CCC1CCC(c2ccccc2)(N(C)C)CC1)C(=O)CC1CCCCN1S(=O)(=O)c1cccc(C(F)(F)F)c1` (stereo not drawn) [Compound 125, N-(2-(4-(dimethylamino)-4-phenylcyclohexyl)ethyl)-N-methyl-2-(1-(3-(trifluoromethyl)phenylsulfonyl)piperidin-2-yl)acetamide], the inhibition at 10 µM in experiment [1] was determined as 98%; in experiment [2], 56%.

`CN1CCN(C2(c3ccc(F)cc3)CCN(C(=O)COCC3CCc4ccccc4N3S(=O)(=O)c3ccc(Cl)c(Cl)c3)CC2)CC1` (stereo not drawn) [Compound 126, 2-((1-(3,4-dichlorophenylsulfonyl)-1,2,3,4-tetrahydroquinolin-2-yl)methoxy)-1-(4-(4-fluorophenyl)-4-(4-methylpiperazin-1-yl)piperidin-1-yl)ethanone]: the inhibition at 10 µM is 87% in experiment [1] and 55% in experiment [2].

For the compound `CN(CC1CCC(Cc2ccccc2)(N2CCCC2)CC1)C(=O)COCC1CCc2ccccc2N1S(=O)(=O)c1ccc(Cl)c(Cl)c1` (stereo not drawn) [Compound 127, N-((4-benzyl-4-(pyrrolidin-1-yl)cyclohexyl)methyl)-2-((1-(3,4-dichlorophenylsulfonyl)-1,2,3,4-tetrahydroquinolin-2-yl)methoxy)-N-methylacetamide], the inhibition at 10 µM in experiment [1] amounted to 90%; in experiment [2], 54%.

In the case of `CN(CCCC1CCC(c2ccccc2)(N2CCCC2)CC1)C(=O)CC(NS(=O)(=O)c1ccc2ccccc2c1)c1ccccc1` (stereo not drawn) [Compound 128, N-methyl-3-(naphthalene-2-sulfonamido)-3-phenyl-N-(3-(4-phenyl-4-(pyrrolidin-1-yl)cyclohexyl)propyl)propanamide], the inhibition at 10 µM in experiment [1] was 98%; in experiment [2], 53%.

As for `Cc1cc(S(=O)(=O)N2CCCCC2CCC(=O)N(C)CC2CCC(Cc3ccccc3)(N3CCCC3)CC2)c(C)cc1Cl` (stereo not drawn) [Compound 129, N-((4-benzyl-4-(pyrrolidin-1-yl)cyclohexyl)methyl)-3-(1-(4-chloro-2,5-dimethylphenylsulfonyl)piperidin-2-yl)-N-methylpropanamide], the inhibition at 10 µM in experiment [1] is 104%; in experiment [2], 52%.

(Values after US20090253669A1, “Substituted Sulfonamide Compounds” (GRUENENTHAL GmbH, priority 2008, published 2009).)
